In assay [1] the target is T1, human GLP-1 receptor (Homo sapiens, UniProt P43220).
T1 construct: expressed in transfected cells; host or cells: BHK cells, clone FCW467-12A/KZ10-1 (parent line BHKTS13), further transfected with CRE luciferase
The experiment in a line: In vitro potency (CRE luciferase; whole cells). It counts as cell-based. More on the design: EC50/pM (ratio 1% HSA/0% HSA): unit not given here. The settings on record: for EC50: BHK cells; for EC50/pM (ratio 1% HSA/0% HSA): ratio of EC50 at 1% HSA to EC50 at 0% HSA. An outline of the steps: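 Reporter: CRE-luciferase in BHK cells stably expressing human GLP-1R, 5×10^3 cells/well; compounds tested in buffer containing 0% or 1% HSA.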

The target in assay [2] is T1, human GLP-1 receptor. The experiment in a line: GLP-1 receptor binding (SPA, displacement of 125I-GLP-1). To be noted: for IC50 (high HSA): heading: Receptor binding affinity IC50. Summed up:
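Tracer [125I]-GLP-1(7-36)NH2 at 0.06 nM final competed on hamster stably transfected cell membranes captured by WGA SPA beads; 120 min, 30 °C, scintillation count.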
In general terms: Loss of bound radioactivity is the signal in a displacement assay; it reports binding, not function.

Where [3] appears, read: In vitro potency (CRE luciferase) EC50 (1% HSA), 1% HSA.
Where [4] appears, read: Receptor binding affinity IC50 (high HSA), 2.0% HSA (high albumin).
Setting [5] is: 0% HSA, read-out: In vitro potency (CRE luciferase) EC50 (0% HSA).
Where [6] appears, read: 0.001% HSA (low albumin), read-out: Receptor binding affinity IC50 (low HSA).

Molecules are shown by their SMILES. Where two headings read alike, the source gives them in different places. Numbered stars: 1 amine (or outer) side, 2 acyl side, 3 side chain; on linkers, the order of the positions; unused ones are H or OH. Square brackets hold non-standard residues; d marks the D form. Side chains are listed from the residue outwards. Peptide text beside a SMILES is read from it. * marks the point of attachment. C18 diacid = O=C(O)CCCCCCCCCCCCCCCCC(=O)*; γGlu = O=C(O)[C@H](CCC(=O)[*:2])N[*:1]; εLys = N[C@@H](CCCCN[*:1])C(=O)[*:2]; AEEA = NCCOCCOCC(=O)O; Aib = CC(C)(N)C(=O)O

T1 sequence (P43220 24-463): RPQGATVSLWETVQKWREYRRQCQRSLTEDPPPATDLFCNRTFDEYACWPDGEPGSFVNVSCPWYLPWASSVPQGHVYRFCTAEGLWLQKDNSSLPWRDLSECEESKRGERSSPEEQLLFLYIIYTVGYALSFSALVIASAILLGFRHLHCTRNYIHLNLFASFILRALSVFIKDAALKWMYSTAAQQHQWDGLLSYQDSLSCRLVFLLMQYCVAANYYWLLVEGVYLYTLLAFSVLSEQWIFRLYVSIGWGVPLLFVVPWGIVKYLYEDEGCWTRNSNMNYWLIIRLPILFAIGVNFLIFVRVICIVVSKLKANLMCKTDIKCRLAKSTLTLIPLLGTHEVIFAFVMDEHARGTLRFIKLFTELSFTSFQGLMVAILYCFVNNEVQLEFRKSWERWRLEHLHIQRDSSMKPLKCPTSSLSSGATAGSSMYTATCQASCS

In general, EC50 refers to the concentration that produces a half-maximal response. As a reminder, the IC50 is the midpoint of a concentration-inhibition curve. With `CC[C@H](C)[C@H](NC(=O)[C@H](Cc1ccccc1)NC(=O)[C@H](CCC(=O)O)NC(=O)[C@H](CCCCNC(=O)[C@@H](N)CCCCNC(=O)[C@@H](N)CCCCNC(=O)CC[C@H](NC(=O)CCCCCCCCCCOc1ccc(C(=O)O)cc1)C(=O)O)NC(=O)[C@H](C)NC(=O)[C@H](C)NC(=O)[C@H](CCC(N)=O)NC(=O)CNC(=O)[C@H](CCC(=O)O)NC(=O)[C@H](CC(C)C)NC(=O)[C@H](Cc1ccc(O)cc1)NC(=O)[C@H](CO)NC(=O)[C@H](CO)NC(=O)[C@@H](NC(=O)[C@H](CC(=O)O)NC(=O)[C@H](CO)NC(=O)[C@@H](NC(=O)[C@H](Cc1ccccc1)NC(=O)[C@@H](NC(=O)CNC(=O)[C@H](CCC(=O)O)NC(=O)C(C)(C)NC(=O)[C@@H](N)Cc1c[nH]cn1)[C@@H](C)O)[C@@H](C)O)C(C)C)C(=O)N[C@@H](C)C(=O)N[C@@H](Cc1c[nH]c2ccccc12)C(=O)N[C@@H](CC(C)C)C(=O)N[C@H](C(=O)N[C@@H](CCCNC(=N)N)C(=O)NCC(=O)N[C@@H](CCCNC(=N)N)C(=O)N[C@@H](CCCCNC(=O)[C@@H](N)CCCCNC(=O)[C@@H](N)CCCCNC(=O)CC[C@H](NC(=O)CCCCCCCCCCOc1ccc(C(=O)O)cc1)C(=O)O)C(=O)O)C(C)C` [Example 20, N^ε26-[(2S)-2-amino-6-[[(2S)-2-amino-6-[[(4S)-4-carboxy-4-[11-(4-carboxyphenoxy)undecanoylamino]butanoyl]amino]hexanoyl]amino]hexanoyl], N^ε37-[(2S)-2-amino-6-[[(2S)-2-amino-6-[[(4S)-4-carboxy-4-[11-(4-carboxyphenoxy)undecanoylamino]butanoyl]amino]hexanoyl]amino]hexanoyl]-[Aib^8,Arg^34,Lys^37]-GLP-1-(7-37)-peptide], the EC50 on human GLP-1 receptor [1] (In vitro potency (CRE luciferase) EC50 (0% HSA), 0% HSA) worked out at 0.0049 nM; on human GLP-1 receptor [1] (setting [3]), 0.063 nM. For the same molecule, at human GLP-1 receptor [1], the “EC50/pM (ratio 1% HSA/0% HSA)” value is 13. Besides, the IC50 came out at 48 nM on human GLP-1 receptor [2] (setting [4]) and 0.13 nM on human GLP-1 receptor [2] (Receptor binding affinity IC50 (low HSA), 0.001% HSA (low albumin)).

As for `CC[C@H](C)[C@H](NC(=O)[C@H](Cc1ccccc1)NC(=O)[C@H](CCC(=O)O)NC(=O)[C@H](CCCCNC(=O)[C@@H](N)CCCCNC(=O)[C@@H](N)CCCCNC(=O)CC[C@H](NC(=O)CCCCCCCCCCCCCCCCC(=O)O)C(=O)O)NC(=O)[C@H](C)NC(=O)[C@H](C)NC(=O)[C@H](CCC(N)=O)NC(=O)CNC(=O)[C@H](CCC(=O)O)NC(=O)[C@H](CC(C)C)NC(=O)[C@H](Cc1ccc(O)cc1)NC(=O)[C@H](CO)NC(=O)[C@H](CO)NC(=O)[C@@H](NC(=O)[C@H](CC(=O)O)NC(=O)[C@H](CO)NC(=O)[C@@H](NC(=O)[C@H](Cc1ccccc1)NC(=O)[C@@H](NC(=O)CNC(=O)[C@H](CCC(=O)O)NC(=O)C(C)(C)NC(=O)[C@@H](N)Cc1c[nH]cn1)[C@@H](C)O)[C@@H](C)O)C(C)C)C(=O)N[C@@H](C)C(=O)N[C@@H](Cc1c[nH]c2ccccc12)C(=O)N[C@@H](CC(C)C)C(=O)N[C@H](C(=O)N[C@@H](CCCNC(=N)N)C(=O)NCC(=O)N[C@@H](CCCNC(=N)N)C(=O)N[C@@H](CCCCNC(=O)[C@@H](N)CCCCNC(=O)[C@@H](N)CCCCNC(=O)CC[C@H](NC(=O)CCCCCCCCCCCCCCCCC(=O)O)C(=O)O)C(=O)O)C(C)C` [Example 27, N^ε26-[(2S)-2-amino-6-[[(2S)-2-amino-6-[[(4S)-4-carboxy-4-(17-carboxyheptadecanoylamino)butanoyl]amino]hexanoyl]amino]hexanoyl], N^ε37-[(2S)-2-amino-6-[[(2S)-2-amino-6-[[(4S)-4-carboxy-4-(17-carboxyheptadecanoylamino)butanoyl]amino]hexanoyl]amino]hexanoyl]-[Aib^8,Arg^34,Lys^37]-GLP-1-(7-37)-peptide], the figures for the EC50 on human GLP-1 receptor [1] (setting [5]) and at human GLP-1 receptor [1] (setting [3]) were 0.022 nM and 6.19 nM, respectively. Besides, the “EC50/pM (ratio 1% HSA/0% HSA)” value on human GLP-1 receptor [1] turned out to be 276. Besides, at human GLP-1 receptor [2] (setting [6]), the IC50 was 0.25 nM. In addition, the IC50 (high HSA) at human GLP-1 receptor [2] (setting [4]) turned out to be 689 nM.

Consider `CC[C@H](C)[C@H](NC(=O)[C@H](Cc1ccccc1)NC(=O)[C@H](CCC(=O)O)NC(=O)[C@H](CCCCNC(=O)[C@@H](N)CCCCNC(=O)COCCOCCNC(=O)COCCOCCNC(=O)CC[C@H](NC(=O)CCCCCCCCCCCCCCCCC(=O)O)C(=O)O)NC(=O)[C@H](C)NC(=O)[C@H](C)NC(=O)[C@H](CCC(N)=O)NC(=O)[C@H](CCC(=O)O)NC(=O)[C@H](CCC(=O)O)NC(=O)[C@H](CC(C)C)NC(=O)[C@H](Cc1ccc(O)cc1)NC(=O)[C@H](CO)NC(=O)[C@H](CO)NC(=O)[C@@H](NC(=O)[C@H](CC(=O)O)NC(=O)[C@H](CO)NC(=O)[C@@H](NC(=O)[C@H](Cc1ccccc1)NC(=O)[C@@H](NC(=O)CNC(=O)[C@H](CCC(=O)O)NC(=O)C(C)(C)NC(=O)[C@@H](N)Cc1c[nH]cn1)[C@@H](C)O)[C@@H](C)O)C(C)C)C(=O)N[C@@H](C)C(=O)N[C@@H](Cc1c[nH]c2ccccc12)C(=O)N[C@@H](CC(C)C)C(=O)N[C@H](C(=O)N[C@@H](CCC(N)=O)C(=O)NCC(=O)N[C@@H](CCCNC(=N)N)C(=O)N[C@@H](CCCCNC(=O)[C@@H](N)CCCCNC(=O)COCCOCCNC(=O)COCCOCCNC(=O)CC[C@H](NC(=O)CCCCCCCCCCCCCCCCC(=O)O)C(=O)O)C(=O)O)C(C)C` [Example 28, N^ε26-[(2S)-2-amino-6-[[2-[2-[2-[[2-[2-[2-[[(4S)-4-carboxy-4-(17-carboxyheptadecanoylamino)butanoyl]amino]ethoxy]ethoxy]acetyl]amino]ethoxy]ethoxy]acetyl]amino]hexanoyl], N^ε37-[(2S)-2-amino-6-[[2-[2-[2-[[2-[2-[2-[[(4S)-4-carboxy-4-(17-carboxyheptadecanoylamino)butanoyl]amino]ethoxy]ethoxy]acetyl]amino]ethoxy]ethoxy]acetyl]amino]hexanoyl]-[Aib^8,Glu^22,Gln^34, Lys^37]-GLP-1-(7-37)-peptide] (H-H[Aib]EGTFTSDVSSYLEEQAAK([εLys-AEEA-AEEA-γGlu-C18 diacid])EFIAWLVQGRK([εLys-AEEA-AEEA-γGlu-C18 diacid])-OH; N-terminus and C-terminus assumed), for which the EC50 on human GLP-1 receptor [1] (setting [5]) worked out at 0.017 nM; on human GLP-1 receptor [1] (setting [3]), 5.73 nM. Also, the “EC50/pM (ratio 1% HSA/0% HSA)” value at human GLP-1 receptor [1] is listed as 329. Moreover, the IC50 at human GLP-1 receptor [2] (setting [6]) is 1.67 nM. Further, the IC50 (high HSA) on human GLP-1 receptor [2] (setting [4]) was ≥ 1000 nM.

These data come from patent publication US10604554B2, “Double-acylated GLP-1 derivatives” (Novo Nordisk A/S, priority 2012, dated 2020).
